Data set [1] deals with EZH2 target genes (KRT17, FBXO32) in MDA-MB-231 cells. Description: Real-time RT-PCR cell based assay for up-regulation of H3K27me3 silenced genes. An excerpt: In order to monitor the reversal of epigenetic silencing associated with H3K27me3, a cell based assay was established using the breast-cancer cell line MDA-MB-231 for which EZH2 expression levels as well as EZH2 target genes have been characterised (17). For initial characterisation of compound activity two genes (KRT17, FBXO32) were selected which are primarily silenced by H3K27me3 in combination with H3K9me2/3 but are not DNA methylated. Furthermore, the DNA methylated gene (RUNX3) was selected to control for effects at loci that are silenced by H3K27me3 in combination with CpG island DNA methylation. The two enzymes which perform H3K27 methylation (EZH2) and demethylation (JMJD3) were also included. Cell death can lead to the down-regulation of EZH2 and up-regulation of JMJD3 in cells (36) and is therefore important to control for indirect effects due to cell death in such a cell-based assay.
In order to identify compounds which can mediate the reactivation of PRC2 silenced genes, MDA-MB-231 cells were treated for 48 h at a concentration of 10 μM of Example compounds 3 (HKMTi-1-005), 4 (HKMTi-1-022) or 5 (HKMTi-1-011), as well as with the comparative examples BIX-01294 or UNC0224, and mRNA levels of KRT17, FBXO32, RUNX3, as well as EZH2 and JMJD3 were measured by real-time RT-PCR. The data were normalised against the housekeeping gene GAPDH as well as RNA pol II (only results for GAPDH are shown, although consistent results were obtained with RNA pol II normalisation). […] The reported G9a/GLP specific inhibitors BIX01294 and UNC0224 have a very different activity profile on gene expression.
(§1) To characterise example compounds 3 (HKMTi-1-005), 4 (HKMTi-1-022) and 5 (HKMTi-1-011) further, MDA-MB-231 cells were treated for 48 h and 72 h at various concentrations (FIGS. 1d and e). […] At higher doses of compounds cell death started to occur, particularly at 72 h, which coincides with a dramatic drop in GAPDH levels. At these doses, expression of KRT17 was often below the detection limit of low-expressed genes due to cell death (indicated as “*” in FIGS. 1d and e). Independently synthesised batches of Example compounds 3 (HKMTi-1-005), 4 (HKMTi-1-022) and 5 (HKMTi-1-011) were prepared and assessed to ensure reproducibility of our results and indeed confirmed that those compounds could induce gene re-expression of KRT17 and FBXO32.
Cell culture and compound treatment: MDA-MB-231, T47D, MCF7, BT474, BT549 and SKBR3 breast cancer cell lines were cultured in DMEM-Medium supplemented with 10% FCS (#02.00.830, First Link (UK), 2 mM L-Glutamine (#25030-024, Invitrogen), 100 U/ml Penicillin and 100 μg/ml Streptavidin (#15070-063, Invitrogen) until they were ˜60% confluent and then treated for either 48 h or 72 h with a compound. Compounds were diluted in DMSO at Stocks of 10 mM. MCF-10a breast cell lines were cultured in DMEM/F12-Medium supplemented with 5% horse serum, EGF (20 ng/ml), Hydrocortizone ([…]), Cholera Toxin (100 ng/ml), Insulin (10 μg/ml) as well as 100 U/ml Penicillin and 100 μg/ml Streptavidin (#15070-063, Invitrogen). For MTT experiments, cells were either kept in DMEM/F12 growth medium or in normal DMEM-Medium to mimic the ‘normal’ non-dividing cell state.
Following compound treatment for 48 h (in 6-well plates), media was removed and 1.5 ml of TRIzol (#155966018, Invitrogen) was added directly to lyse cells. Once cells were lysed, the protocol was continued with 1 ml (TRIzol, cell lysate) according to the manufactures instructions. Purified RNA was dissolved in 35 μl of UltraPure DNase/RNase-free distilled water (#10977049, Invitrogen). Reverse transcription was done using the SuperScript III First-Strand Synthesis System (#18080-051, Invitrogen) according to the manufactures instructions, using 7 μl of the purified RNA as starting material. For real-time measurements the 2×iQ SYBR Green Supermix (#170-8882, Bio-Rad), 200 nM Primers and 0.4 μl of cDNA/per 20 μl reaction was used. […]

Data set [2] deals with histone marks at KRT17 and FBXO32 promoter region in MDA-MB-231 cells. Briefly: Chromatin Immunoprecipitation (ChIP) at KRT17 and FBXO32 promoter. Particulars: MDA-MB-231, 5 μM, 72 h. Format: cell-based. The method, then:
The fold difference to the untreated sample is shown. Each IP-value has been determined as the relative increase to the no-antibody control and then normalised to GAPDH levels.
Chromatin Immunoprecipitation (ChIP) experiments were carried out on treated MDA-MB-231 cells to verify that the detected gene up-regulation is indeed due to chromatin remodelling (FIG. 2). For this, typical silencing marks such as H3K9me3 and H3K27me3 were tested as well as activating marks such as H3K4me3, H3K27ac and H3K9ac. […] It should be noted that greater than 50% cell death is observed for compound 5 (HKMTi-1-011) at this concentration, but not for the others, and the changes observed in histone marks for compound 5 (HKMT-1-011) may reflect ongoing cell death.
ChIP was accomplished using Dynabeads Protein A (Invitrogen #100-01D.) according to (41), except that following the Chelex-DNA purification an additional purification with QIAquick PCR Purification Kit (#28106, Qiagen) was carried out, here the ChIP-products were eluted in 50 μl and for subsequent real-time measurements (as described above) 1.5 μl per reaction was used. The list of Primers can be found in FIG. 7 (Supplementary Table 2).

For data set [3], the system named is EZH2 target genes in MDA MB-231 cells. Briefly: Agilent two-colour gene expression microarrays, enrichment of EZH2 target genes. Particulars: MDA MB-231, 10 μM. In kind it is cell-based. Here is the method:
Agilent two-colour microarrays were used to profile gene expression changes induced 24 h and 48 h after 10 μM treatment with example compound 3 (HKMTi-1-005) compared to compound HKMTi-1-012. […] Many of these EZH2 target genes are clearly differentially expressed following treatment with example compound 3 (HKMTi-1-005) compared to compound HKMTi-1-012, as shown in Table 2 in FIG. 5. Statistical enrichment of EZH2-target genes (Lee et al 2011) in the lists of differentially expressed genes was evaluated using the hypergeometric distribution. Example compound 3 (HKMTi-1-005) results in significant upregulation (p=3.3^−33 at 24 h and p=3.2^−21 at 48 h) and significant down-regulation (p=3.5^−37 at 24 h and p=3.8^−61 at 48 h) of EZH2 target genes. […]
Normalised log 2 gene expression ratios were analysed using LIMMA (Smyth 2004) to obtain empirical Bayes moderated t-statistics reflecting statistical significance of differential expression across the 4 replicates for each drug, time combination. […]
Statistical significance of overlap between these lists of EZH2 targets and the genes differentially expressed upon drug treatment in our microarray study was assessed using the hypergeometric distribution.

The next data set concerns MDA-MB-231 cells. Description: Cell death of treated MDA-MB-231 cells. In kind it is cell-based. The settings on record: MDA-MB-231, concentration of the ChIP experiment (5 μM, 72 h). The method, then: as §1
Chromatin Immunoprecipitation (ChIP) experiments were carried out on treated MDA-MB-231 cells to verify that the detected gene up-regulation is indeed due to chromatin remodelling (FIG. 2). For this, typical silencing marks such as H3K9me3 and H3K27me3 were tested as well as activating marks such as H3K4me3, H3K27ac and H3K9ac. […] It should be noted that greater than 50% cell death is observed for compound 5 (HKMTi-1-011) at this concentration, but not for the others, and the changes observed in histone marks for compound 5 (HKMT-1-011) may reflect ongoing cell death. […]

The conditions of data set [4]: reported; cited from earlier work.
[5] abbreviates: MDA-MB-231, 10 μM, 48 h, normalised to GAPDH.
Where [6] appears, read: MDA-MB-231, various concentrations, 48 h and 72 h.

On to `COc1cc2nc(N3CCN(C)CC3)nc(NC3CCN(Cc4ccccc4)CC3)c2cc1OC` [HKMTi-1-005], for which, in data set [1] (setting [5]), the “FBXO32 RNA levels” value is “up-regulate”, the “KRT17 RNA levels” value is reported as “up-regulate” and the RUNX3 expression result is “not effecting”. Further, in data set [1] (setting [6]), the “FBXO32 mRNA level” value is “dose-dependent increase”, the “JMJD3 mRNA level” value is on record as “dose-dependent increase” and the “KRT17 mRNA level” value is given as “dose-dependent increase”. In data set [2], the “permissive chromatin marks (H3K4me3, H3K4me2, H3K9ac, H3K27ac)” value (“permissive chromatin marks” for short) is “increase in most permissive marks”; the “repressive chromatin marks (H3K27me3, H3K9me3) at KRT17 and FBXO32” value (from here on “repressive chromatin marks”) is reported as “clear decrease”. Also, in data set [3], the “functional enrichment of changed pathways (DAVID)” value is “upregulation of apoptosis genes and the lysosome pathway, and a downregulation of a number of processes related to cell cycle & cell division”.
As to `COc1cc2nc(N3CCCCC3)nc(NC3CCN(Cc4ccccc4)CC3)c2cc1OC` [HKMTi-1-022], in data set [1] (setting [5]), the “FBXO32 RNA levels” value is reported as “up-regulate”, the “KRT17 RNA levels” value is “up-regulate” and the RUNX3 expression result is given as “not effecting”. Moreover, in data set [1] (setting [6]), the “FBXO32 mRNA level” value was “increase in a dose dependent manner”, the “JMJD3 mRNA level” value is recorded as “increase in a dose dependent manner” and the “KRT17 mRNA level” value was “increase in a dose dependent manner”. Moreover, in data set [2], the JMJD3 binding result was “increase”; the “permissive chromatin marks” value was “increase of the activating marks H3K4me3, H3K27ac and H3K9ac”; the “repressive chromatin marks” value is “clear decrease”. Also, in data set [2] (listed as HKMT-1-022), the “permissive chromatin marks” value is recorded as “concomitant increase in all permissive chromatin marks examined”.
For `Nc1nccc2c1ncn2C1C=C(CO)C(O)C1O` (stereo not drawn) [DZNep, reference compound], in data set [1] (setting [6]), the “EZH2 mRNA level” value was “unaffected”, the “FBXO32 mRNA level” value is on record as “unaffected”, the “JMJD3 mRNA level” value is given as “unaffected” and the “KRT17 mRNA level” value is given as “consistently up-regulated”. In addition, the RUNX3 expression entry in data set [1] (setting [6]) was “increased under certain conditions although not in a dose dependent manner”.
`COc1cc2nc(N3CCN(c4ccccn4)CC3)nc(NC3CCN(Cc4ccccc4)CC3)c2cc1OC` [HKMTi-1-011]: in data set [1] (setting [5]), the “FBXO32 RNA levels” value is listed as “up-regulate”, the “KRT17 RNA levels” value is recorded as “up-regulate” and the RUNX3 expression entry was “not effecting”. Besides, in data set [1] (setting [6]), the “FBXO32 mRNA level” value was “increase in a dose dependent manner”, the “JMJD3 mRNA level” value is reported as “increase in a dose dependent manner” and the “KRT17 mRNA level” value is “increase in a dose dependent manner”. Moreover, in data set [2], the “permissive chromatin marks” value was “increase in most permissive marks”; the “repressive chromatin marks” value is reported as “clear decrease”. In addition, in the data set on MDA-MB-231 cells, the cell death result is on record as “greater than 50%”.
For the compound `COc1cc2c(NC3CCN(C)CC3)nc(N3CCCN(C)CC3)nc2cc1OCCCN(C)C` [UNC0224, reference compound], in data set [1] (setting [5]), the “FBXO32 RNA levels” value is given as “very little effect” and the “KRT17 RNA levels” value is “very little effect”. The “gene expression profile in the cell assay (KRT17, FBXO32, RUNX3)” value in data set [1] (MDA-MB-231, 10 μM, compared with example compounds 3, 4 and 5) was “very little effect”.
In the case of `COc1cc2nc(N3CCCN(C)CC3)nc(NC3CCN(Cc4ccccc4)CC3)c2cc1OC` [BIX-01294, reference compound], in data set [1] (setting [5]), the “FBXO32 RNA levels” value is recorded as “does up-regulate” and the “KRT17 RNA levels” value was “does not up-regulate”. For the same compound, in data set [4], the “separation of functional potency and cell toxicity” value is “poor separation of functional potency and cell toxicity”.

(Values after US9932317B2, “Quinazoline compounds and their use in therapy” (Imperial Innovations Limited, priority 2012, dated 2018).)
